Measured values from patent US20230159469A1, “NOVEL PHTHALAZINE DERIVATIVE HAVING ECTONUCLOEOTIDE PYROPHOSPHATASE/PHOSPHODIESTE RASE INHIBITORY ACTIVITY, AND USE THEREOF” (TXINNO BIOSCIENCE INC., priority 2020, published 2023).
Counter-ions that a name gives are not always drawn.

Biological target: T1, human recombinant ENPP1 (Homo sapiens, UniProt P22413)
T1 construct: purchased R & D systems
T1 sequence (P22413 1-925): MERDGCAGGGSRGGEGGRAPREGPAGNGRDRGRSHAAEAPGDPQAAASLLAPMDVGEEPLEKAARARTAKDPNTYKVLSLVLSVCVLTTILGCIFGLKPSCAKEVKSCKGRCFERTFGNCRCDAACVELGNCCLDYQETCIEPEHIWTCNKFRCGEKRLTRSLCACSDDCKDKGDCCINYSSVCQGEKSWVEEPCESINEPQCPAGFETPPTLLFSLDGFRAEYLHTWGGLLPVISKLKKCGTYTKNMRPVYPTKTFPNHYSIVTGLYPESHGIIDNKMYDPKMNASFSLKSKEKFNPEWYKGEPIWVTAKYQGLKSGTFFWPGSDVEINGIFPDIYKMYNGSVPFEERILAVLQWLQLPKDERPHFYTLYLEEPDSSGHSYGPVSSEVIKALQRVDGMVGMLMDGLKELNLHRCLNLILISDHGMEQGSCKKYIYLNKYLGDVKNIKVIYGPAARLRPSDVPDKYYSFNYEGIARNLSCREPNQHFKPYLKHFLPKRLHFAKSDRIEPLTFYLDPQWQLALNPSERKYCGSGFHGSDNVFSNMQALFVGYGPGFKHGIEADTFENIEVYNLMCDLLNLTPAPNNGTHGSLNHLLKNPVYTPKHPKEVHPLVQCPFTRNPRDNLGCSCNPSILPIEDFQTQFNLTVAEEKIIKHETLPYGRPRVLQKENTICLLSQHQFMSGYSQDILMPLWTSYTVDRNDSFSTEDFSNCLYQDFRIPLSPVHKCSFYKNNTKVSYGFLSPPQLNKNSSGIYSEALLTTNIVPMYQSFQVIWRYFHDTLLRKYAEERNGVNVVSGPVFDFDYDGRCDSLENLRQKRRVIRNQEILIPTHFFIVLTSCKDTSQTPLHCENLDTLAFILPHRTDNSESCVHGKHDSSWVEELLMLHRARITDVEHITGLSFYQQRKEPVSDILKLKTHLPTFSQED
Assay: ENPP1 enzyme assay with cGAMP substrate (AMP-Glo luminescence)
Format: biochemical
Conditions: human recombinant ENPP1 3 ng/reaction, cGAMP 5 μM, 37° C. 90 minutes, read-out: Enzymatic activity (ENPP1 IC50)
Description: ENPP1 hydrolyzes nucleotides or nucleotide derivatives to produce nucleoside -5′-monophosphate and pyrophosphate. in addition, ENPP1 hydrolyzes 2′,3′-cGAMP to produce 5′-adenosine monophosphate (AMP) and 5′-guanosine monophosphate (GMP). AMP produced from the reaction is measured using the AMP-Glo® kit (Promega). The AMP-Glo® kit contains two reagents. The first reagent terminates the AMP-producing enzymatic reaction, removes ATP and converts the produced AMP into ADP. The second reagent converts ADP to ATP which is used to generate luminescence in the luciferase reaction. The amount of luminescence measured is proportional to the amount of AMP produced by ENPP1.
The final reaction mixture contains 50 mM Tris (pH 8.5) buffer, 250 mM NaCl, 0.5 mM. CaCl2, 1 μM ZnCl2, 5% glycerol and 1% DMSO. […] The reaction was initiated by addition of cGAMP (at a final concentration of 5 μM) and reacted at 37° C. for 90 minutes. At the end of the reaction, 10 μl of the AMP-Glo first reagent was added to stop the reaction and the result was stored at room temperature for […]. After storage, 20 μl of an AMP detection solution (a mixture of AMP-Glo II reagent and Kinase-Gio at a ratio of 1:100) was added and stored at room. temperature for 1 hour. Luminescence signals were measured using a Victor® plate reader (Perkin Elmer). The maximal activity control (containing enzymes and substrates only in the presence of 1% DMSO; MAX) and the minimal activity control (containing substrates and 1% DMSO; MIN) were evaluated simultaneously. In each experiment, serially diluted reference ENPP1 inhibitors were tested together. IC50, indicating % residual activity versus compound concentration was determined by fitting inhibition curves using the 3-parameter analysis of GraphPad Prism® software. Serially diluted samples of one compound were tested two or more times and an average IC50 of each compound was calculated.

Compound	IC50
O=c1[nH]nc(-c2ccccc2)c2ccccc12 [Compound No. 1, 4-phenylphthalazin-1(2H)-one]	1 to 10 µM
CC(C)(C)OC(=O)Nc1cccc(-c2n[nH]c(=O)c3ccccc23)c1 [Compound No. 2, tert-butyl (3-(4-oxo-3,4-dihydrophthalazin-1-yl)phenyl)carbamate]	> 10 µM
Cn1nc(-c2cccc(NC(=O)OC(C)(C)C)c2)c2ccccc2c1=O [Compound No. 3, tert-butyl (3(3-methyl-4-oxo-3,4-dihydrophthalazin-1-yl)phenyl)carbamate]	> 10 µM
CC(C)(C)OC(=O)Nc1cccc(-c2nn(Cc3ccccc3)c(=O)c3ccccc23)c1 [Compound No. 4, tert-butyl (3(3-benzyl-4-oxo-3,4-dihydrophthalazin-1-yl)phenyl)carbamate]	> 10 µM
CC(C)(C)OC(=O)NCc1cccc(-c2n[nH]c(=O)c3ccccc23)c1 [Compound No. 5]	> 10 µM
Cn1nc(-c2cccc(CNC(=O)OC(C)(C)C)c2)c2ccccc2c1=O [Compound No. 6, tert-butyl 3-(3-methyl-4-oxo-3,4-dihydrophthalazin-1-yl) benzyl carbamate]	> 10 µM
Cn1nc(-c2ccc(CNC(=O)OC(C)(C)C)cc2)c2ccccc2c1=O [Compound No. 9]	> 10 µM
CCn1nc(-c2ccc(CNC(=O)OC(C)(C)C)cc2)c2ccccc2c1=O [Compound No. 10, tert-butyl (4-(3-ethyl-4-oxo-3,4-dihydrophthalazin-1-yl)benzyl)carbamate]	> 10 µM
CC(C)(C)OC(=O)NCc1ccc(-c2nn(-c3ccccc3)c(=O)c3ccccc23)cc1 [Compound No. 12, tert-butyl (4-(4-oxo-3-phenyl-3,4-dihydrophthalazin-1-yl)benzyl)carbamate]	> 10 µM
CC(C)(C)OC(=O)NCc1ccc(-c2nn(Cc3ccccc3)c(=O)c3ccccc23)cc1 [Compound No. 13]	> 10 µM
CC(C)(C)OC(=O)NCc1ccc(-c2nn(Cc3ccc(F)cc3)c(=O)c3ccccc23)cc1 [Compound No. 14, tert-butyl (4-(3-(4-fluorobenzyl)-4-oxo-3,4-dihydrophthalazin-1-yl)benzyl)carbamate]	> 10 µM
COc1ccc2c(=O)[nH]nc(-c3ccc(CNC(=O)OC(C)(C)C)cc3)c2c1 [Compound No. 15, tert-butyl (4-(7-methoxy-4-oxo-3,4-dihydrophthalazin-1-yl)benzyl)carbamate]	> 10 µM
COc1ccc2c(-c3ccc(CNC(=O)OC(C)(C)C)cc3)nn(C)c(=O)c2c1 [Compound No. 18, tert-butyl (4-(6-methoxy-3-methyl-4-oxo-3,4-dihydrophthalazin-1-yl)benzyl)carbamate]	> 10 µM
COc1cc2c(-c3ccc(CNC(=O)OC(C)(C)C)cc3)nn(C)c(=O)c2cc1OC [Compound No. 20, tert-butyl (4-(6,7-dimethoxy-3-methyl-4-oxo-3,4-dihydrophthalazin-1-yl)benzyl)carbamate]	> 10 µM
CC(C)(C)OC(=O)NCc1ccc(-c2n[nH]c(=O)c3ccccc23)cc1C(F)(F)F [Compound No. 24, tert-butyl 4-(4-oxo-3,4-dihydrophthalazin-1-yl)-2-(trifluoromethyl)benzyl carbamate]	> 10 µM
CC(C)(C)OC(=O)N1CCc2cc(-c3n[nH]c(=O)c4ccccc34)ccc2C1 [Compound No. 26, tert-butyl 6-(4-oxo-3,4-dihydrophthalazin-1-yl)-3,4-dihydroisoquinoline-2(1H)-carboxylate]	> 10 µM
Cn1nc(-c2ccc3c(c2)CCN(C(=O)OC(C)(C)C)C3)c2ccccc2c1=O [Compound No. 27, tert-butyl-6-(3-methyl-4-oxo-3,4-dihydrophthalazin-1-yl)-3,4-dihydroisoquinoline-2(1H)-carboxylate]	> 10 µM

Compound	IC50
COc1cc2c(-c3ccc4c(c3)CCN(C(=O)OC(C)(C)C)C4)n[nH]c(=O)c2cc1OC [Compound No. 28, tert-butyl 6-(6,7-dimethoxy-4-oxo-3,4-dihydrophthalazin-1-yl)-3,4-dihydroisoquinoline-2(1H)-carboxylate]	> 10 µM
COc1cc2c(-c3ccc4c(c3)CCN(C(=O)OC(C)(C)C)C4)nn(C)c(=O)c2cc1OC [Compound No. 29, tert-butyl-6-(6,7-dimethoxy-3-methyl-4-oxo-3,4-dihydrophthalazin-1-yl)-3,4-dihydroisoquinoline-2(1H)-carboxylate]	> 10 µM
Nc1cccc(-c2n[nH]c(=O)c3ccccc23)c1 [Compound No. 30, 4-(3-aminophenyl)phthalazin-1(2H)-one hydrochloride]	> 10 µM
Cn1nc(-c2cccc(N)c2)c2ccccc2c1=O [Compound No. 31, 4-(3-aminophenyl)-2-methylphthalazin-1(2H)-one hydrochloride]	> 10 µM
Nc1cccc(-c2nn(Cc3ccccc3)c(=O)c3ccccc23)c1 [Compound No. 32, 4-(3-aminophenyl)-2-benzylphthalazin-1(2H)-one hydrochloride]	> 10 µM
NCc1cccc(-c2n[nH]c(=O)c3ccccc23)c1 [Compound No. 33, 4-(3-(aminomethyl)phenyl)phthalazin-1(2H)-one hydrochloride]	> 10 µM
NCc1cccc(-c2nn(Cc3ccccc3)c(=O)c3ccccc23)c1 [Compound No. 35, 4-(3-(aminomethyl)phenyl)-2-benzylphthalazin-1(2H)-one hydrochloride]	> 10 µM
Cn1nc(-c2ccc(CN)cc2)c2ccccc2c1=O [Compound No. 37, 4-(4-aminomethyl)phenyl)-2-methylphthalazin-1(2H)-one hydrochloride]	< 1 µM
CCn1nc(-c2ccc(CN)cc2)c2ccccc2c1=O [Compound No. 38, 4-(4-(aminomethyl)phenyl)-2-ethylphthalazin-1(2H)-one hydrochloride]	< 1 µM
CC(C)n1nc(-c2ccc(CN)cc2)c2ccccc2c1=O [Compound No. 39, 4-(4-(aminomethyl)phenyl)-2-isopropylphthalazin-1-(2H)-one hydrochloride]	> 10 µM
NCc1ccc(-c2nn(-c3ccccc3)c(=O)c3ccccc23)cc1 [Compound No. 40, 4-(4-aminomethyl)phenyl)-2-phenylphthalazin-1(2H)-one hydrochloride]	1 to 10 µM
NCc1ccc(-c2nn(Cc3ccccc3)c(=O)c3ccccc23)cc1 [Compound No. 41, 4-(4-aminomethyl)phenyl)-2-benzylphthalazin-1(2H)-one hydrochloride]	1 to 10 µM
NCc1ccc(-c2nn(Cc3ccc(F)cc3)c(=O)c3ccccc23)cc1 [Compound No. 42, 4-(4-(aminomethyl)phenyl)-2-(4-fluorobenzyl)phthalazin-1(2H)-one hydrochloride]	1 to 10 µM
COc1ccc2c(=O)[nH]nc(-c3ccc(CN)cc3)c2c1 [Compound No. 43, 4-(4-(aminomethyl)phenyl)-6-methoxyphthalazin-1(2H)-one hydrochloride]	< 1 µM
COc1ccc2c(=O)n(C)nc(-c3ccc(CN)cc3)c2c1 [Compound No. 44, (4-(7-methoxy-3-methyl-4-oxo-3,4-dihydrophthalazin-1-yl)phenyl)methanaminium chloride]	1 to 10 µM
COc1ccc2c(-c3ccc(CN)cc3)nn(C)c(=O)c2c1 [Compound No. 46, 4-(4-(aminomethyl)phenyl)-7-methoxy-2-methylphthalazin-1(2H)-one hydrochloride]	> 10 µM
